Here are results for 30 compounds from US5476847A, “Derivatives of phosphinic acid useful as endothelin converting enzyme inhibitors” (priority 1994, dated 1995).

In one test the target is T1, ECE (Cavia porcellus, UniProt P97739).
T1 construct: tissue Keystone Biologicals, Cleveland, Ohio; host or cells: frozen guinea pig lungs; lubrol PX-treated lung membranes
T1 sequence (P97739 1-754): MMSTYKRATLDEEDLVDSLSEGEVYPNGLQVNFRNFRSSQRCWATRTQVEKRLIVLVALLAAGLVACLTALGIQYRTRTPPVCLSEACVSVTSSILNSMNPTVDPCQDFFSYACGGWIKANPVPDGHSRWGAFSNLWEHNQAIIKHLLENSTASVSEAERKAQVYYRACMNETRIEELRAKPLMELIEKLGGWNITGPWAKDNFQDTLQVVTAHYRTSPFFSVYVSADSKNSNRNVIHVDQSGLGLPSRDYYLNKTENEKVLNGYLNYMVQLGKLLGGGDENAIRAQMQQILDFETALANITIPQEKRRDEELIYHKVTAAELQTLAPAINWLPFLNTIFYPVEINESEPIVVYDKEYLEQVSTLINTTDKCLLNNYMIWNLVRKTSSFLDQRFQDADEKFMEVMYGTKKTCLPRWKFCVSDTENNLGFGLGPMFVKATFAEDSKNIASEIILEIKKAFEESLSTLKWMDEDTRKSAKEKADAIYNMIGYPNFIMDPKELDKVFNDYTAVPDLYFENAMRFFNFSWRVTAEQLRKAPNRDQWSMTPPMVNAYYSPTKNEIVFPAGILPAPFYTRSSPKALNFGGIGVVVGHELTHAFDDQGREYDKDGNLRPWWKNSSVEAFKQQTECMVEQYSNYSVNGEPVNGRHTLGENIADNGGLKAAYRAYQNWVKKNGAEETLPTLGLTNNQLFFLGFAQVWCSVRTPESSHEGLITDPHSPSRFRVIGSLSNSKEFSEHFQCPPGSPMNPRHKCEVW
Nature of the test: In vitro ECE assay (inhibition of [125I]BET-1 to [125I]ET-1 conversion, lubrol-treated guinea pig lung membrane). It counts as biochemical. Particulars: L-GPLGM, 2 h preincubation at 4° C., 500 pM [125I]BET-1, table of examples, read-out: ECE IC50. The text has this:
The ECE assay is based on the quantitative determination of [^125 l]ET-1 released from [^125 l]BET-1 labeled on Tyrosine-13 by binding to the membrane-bound ET receptor. […] GPLGM was also found to contain a high density of ET receptors. Thus, this preparation was utilized as a source of both ECE and a saturating concentration of ET receptors for the quantitative determination of [251l]ET-1 from the conversion of [125l ]BET-1. Under selected experimental conditions of the ECE assay, specific [125l]ET-1 bound was directly related to ECE activity. Assays were carried out in the presence of varying concentrations of test compounds to evaluate their efficacy in inhibiting ECE activity.
Frozen guinea pig lungs (Keystone Biologicals,Cleveland, Ohio) are weighed and homogenized in 10 times gram tissue weight of solution A (50 mM Tris-HCl, pH 7.4, 0.25M sucrose, and 2 mM EDTA) using a Polytron tissue homogenizer (probe PTA-20S). Homogenization is repeated four times at speed setting seven each for 10 s and with 5-8 min intervals on ice in between homogenization. Homogenates are spun for 30 min at 2000 g (4100 rpm in an SS34 rotor or 3800 rpm in an SA-600 rotor). Supernatants containing membranes are carefully decanted and saved. Pellets are rehomogenized in solution A as described, and homogenates are spun at 2000 g for 30 min. Supernatants are removed, mixed with the supernatants from the first spin, and spun at 37000 rpm in a 45 Ti rotor (107022 g) for 60 min. Pellets containing membranes are suspended in solution B (10 mM Tris-HCl, pH 7.4, and 0.125M sucrose) using a Dounce homogenizer. Samples are divided into 1 ml fractions, rapidly frozen in a dry ice methanol bath, and stored at -80° C. All steps are carried out at 4° C.
GPLGM fractions prepared as described above are thawed and resuspended at a concentration of 1 mg membrane protein/mL in a solution containing 0.06% lubrol PX, 50 mM Tris-HCl (pH 7.4), and 100 mM NaCl. Stir the mixture for 1 h and then spin for 1 h at 37000 rpm in a 45 Ti rotor (107022 g). Discard the supernatants and resuspend the pellets in a solution containing 50 mM Tris-HCl (pH 7.4), and 100 mM NaCl using a Dounce homogenizer, and adjust the final volume to half the original volume. Spin the homogenates for 1 h at 37000 rpm in a 45 Ti rotor (107022 g). Suspend the membrane pellets in solution B and treat as described above. All steps are performed at 4° C.
ECE Assay: Samples of L-GPLGM containing 20 μg protein are incubated in a solution containing 100 mM Tris-HCl (pH 7), 100 mM NaCl, and 5 mg/ml BSA (Fraction V, 98-99% albumin) (Sigma Chemical Co.) at a final reaction volume of 100 μL. The ECE assay is initiated by the addition of [^125 l]BET-1 to obtain a final concentration of 500 pM. Reactions are carried out for 30 min at 37° C. Reactions are terminated by addition of 4 mL of solution C (10 mM Tris-HCl, pH 7.4, and 150 mM NaCl) at 4° C. followed by rapid filtration on Whatman GF/B glass microfiber filters. Filters are presoaked for 1 h at 4° C. in a solution containing 50 mM Tris-HCl (pH 7.4), 10 mg/mL BSA, and 0.1% sodium azide. Wash test tubes and filters four times with 4 mL of solution C at 4° C., and count radioactivity retained on the filters in a γ counter. Non-specific binding is determined in the presence of 1 μM of unlabeled ET-1 (Peninsula Laboratories, Inc., Belmont, Calif.) in the reaction mixture. All reactions are performed in duplicate.
To test the effect of test compounds on ECE activity, ECE assays are carried out in the presence of varying concentrations of the compounds. Assays are initiated following a 2 h incubation of L-GPLGM with the compound at 4° C. ECE activity in the presence of compounds is expressed as a percentage of control ECE activity of the membrane preparation, which is determined simultaneously.
Regarding `CC(C)CC(CP(=O)(O)C(Cc1ccc2ccccc2c1)NC(=O)[C@H](CCCCNC(=O)OCc1ccccc1)NS(C)(=O)=O)C(=O)N[C@@H](Cc1c[nH]c2ccccc12)C(=O)O` (single isomer, unassigned) [Example 9C], the IC50 (commonly the midpoint of a concentration-inhibition curve) turned out to be 4500 nM.

On to `O=C(NC(Cc1ccc(O)cc1)P(=O)(O)CC1(C(=O)N[C@@H](Cc2c[nH]c3ccccc23)C(=O)O)CCCC1)OCc1ccccc1` (stereo partly drawn) [Example 8], for which the IC50 was 85 nM. Still for that read-out and setting: then `O=C(NC(Cc1ccc(OCc2ccccc2)cc1)P(=O)(O)CC1(C(=O)N[C@@H](Cc2c[nH]c3ccccc23)C(=O)O)CCCC1)OCc1ccccc1` (stereo partly drawn) [Example 1B], with 400 nM; and `CC(C)CC(CP(=O)(O)C(CC(C)C)NC(=O)[C@H](CCCCNC(=O)OCc1ccccc1)NS(C)(=O)=O)C(=O)N[C@@H](Cc1c[nH]c2ccccc12)C(=O)O` (stereo partly drawn) [Example 10B], with 1400 nM. With `O=C(N[C@@H](Cc1ccccc1)P(=O)(O)CC1(C(=O)N[C@@H](Cc2ccc(O)cc2)C(=O)O)CCCC1)OCc1ccccc1` [Example 2], the IC50 turned out to be 130 nM.

`COc1ccc(CC(NC(=O)[C@H](CCCCNC(=O)OCc2ccccc2)NS(C)(=O)=O)P(=O)(O)CC2(C(=O)N[C@@H](Cc3c[nH]c4ccccc34)C(=O)O)CCCC2)cc1` (stereo partly drawn) [Example 3A]: the IC50 came to 50 nM.

Consider `CS(=O)(=O)N[C@@H](CCCCNC(=O)OCc1ccccc1)C(=O)NC(Cc1ccc(O)cc1)P(=O)(O)CC1(C(=O)N[C@@H](Cc2c[nH]c3ccccc23)C(=O)O)CCCC1` (stereo partly drawn) [Example 3B], for which the IC50 was 55 nM. Same read-out and setting: then `NCc1ccc(C(=O)N[C@@H](Cc2ccccc2)P(=O)(O)CC2(C(=O)N[C@@H](Cc3c[nH]c4ccccc34)C(=O)O)CCCC2)cc1` [Example 6], with 90 nM; and `CC(C)CC(CP(=O)(O)C(CCCCO)NC(=O)[C@H](CC(C)C)NS(C)(=O)=O)C(=O)N[C@@H](Cc1c[nH]c2ccccc12)C(=O)O` (stereo partly drawn) [Example 10D], with 150 nM; and `CS(=O)(=O)N[C@@H](CCCCN)C(=O)N[C@@H](Cc1ccccc1)P(=O)(O)CC1(C(=O)N[C@@H](Cc2ccc(O)cc2)C(=O)O)CCCC1` [Example 5C], with 100 nM. Same read-out and setting: then `CS(=O)(=O)N[C@@H](CCCCNC(=O)OCc1ccccc1)C(=O)N[C@@H](Cc1ccccc1)P(=O)(O)CC1(C(=O)N[C@@H](Cc2ccc(O)cc2)C(=O)O)CCCC1` [Example 4], with 119 nM. As to `CC(C)CC(CP(=O)(O)C(CC1CCCC1)NC(=O)[C@H](CCCCNC(=O)OCc1ccccc1)NS(C)(=O)=O)C(=O)N[C@@H](Cc1c[nH]c2ccccc12)C(=O)O` (stereo partly drawn) [Example 10E], the IC50 stood at 55 nM. The same measure, in the same setting: then `O=C(N[C@@H](Cc1ccccc1)P(=O)(O)CC1(C(=O)N[C@@H](Cc2c[nH]c3ccccc23)C(=O)O)CCCC1)OCc1ccccc1` [Example 1], with 190 nM; and `COc1ccc(CC(NC(=O)[C@H](CCCCN)NS(C)(=O)=O)P(=O)(O)CC2(C(=O)N[C@@H](Cc3c[nH]c4ccccc34)C(=O)O)CCCC2)cc1` (stereo partly drawn) [Example 5A], with 40 nM; and `O=C(NC(Cc1ccccc1)P(=O)(O)CC1(C(=O)N[C@@H](Cc2c[nH]c3ccccc23)C(=O)O)CCCCCC1)OCc1ccccc1` (stereo partly drawn) [Example 1C], with 800 nM. Consider `COc1ccc(CC(NC(=O)OCc2ccccc2)P(=O)(O)CC2(C(=O)N[C@@H](Cc3c[nH]c4ccccc34)C(=O)O)CCCC2)cc1` (stereo partly drawn) [Example 1A], for which the IC50 was determined as 115 nM.

The test is the same for the next values; noted with them: L-GPLGM, table of additional compounds, read-out: IC50 (in vitro ECE inhibition activity).
For `CCC(C)C(NC(=O)OCc1ccccc1)C(=O)NC(Cc1ccccc1)P(=O)(O)CC(C(=O)N[C@@H](Cc1c[nH]c2ccccc12)C(=O)O)C(C)C` (stereo partly drawn), the IC50 is 400 nM. Still for that read-out and setting: the figure for `CC(C)CC(NC(=O)C(CCCCNC(=O)OCc1ccccc1)NS(C)(=O)=O)P(=O)(O)CC1(C(=O)N[C@@H](Cc2c[nH]c3ccccc23)C(=O)O)CCCC1` (stereo partly drawn) is 260 nM.

Regarding `CC(C)CC(CP(=O)(O)C(Cc1ccccc1)NC(=O)C(CCCCNC(=O)OCc1ccccc1)NS(C)(=O)=O)C(=O)N[C@@H](Cc1c[nH]c2ccccc12)C(=O)O` (stereo partly drawn), the 50% inhibitory concentration (IC50) is 500 nM.

Turning to `CC(C)C(CP(=O)(O)C(Cc1ccccc1)NC(=O)C(CCCCNC(=O)OCc1ccccc1)NS(C)(=O)=O)C(=O)N[C@@H](Cc1c[nH]c2ccccc12)C(=O)O` (single isomer, unassigned), the IC50 is 1500 nM. The same measure, in the same setting: then `CC(C)CC(CP(=O)(O)C(Cc1ccccc1)NC(=O)C(CC(C)C)NC(=O)OCc1ccccc1)C(=O)N[C@@H](Cc1c[nH]c2ccccc12)C(=O)O` (stereo partly drawn), with 160 nM; and `CC(C)CC(CP(=O)(O)C(Cc1ccc2ccccc2c1)NC(=O)OCc1ccccc1)C(=O)N[C@@H](Cc1c[nH]c2ccccc12)C(=O)O` (stereo partly drawn) [Cbz, 2-naphthylmethyl, H, iso-butyl], with 300 nM; and `CC(C)C(CP(=O)(O)C(Cc1ccc2ccccc2c1)NC(=O)C(CCCCNC(=O)OCc1ccccc1)NS(C)(=O)=O)C(=O)N[C@@H](Cc1c[nH]c2ccccc12)C(=O)O` (stereo partly drawn), with 800 nM.

Regarding `O=C(NC(Cc1ccccc1)P(=O)(O)CC1(C(=O)N[C@@H](Cc2c[nH]c3ccccc23)C(=O)O)CCCC1)OCc1ccccc1` (stereo partly drawn) [Cbz, C6 H5CH2, R3 + R4 = (CH2)4], the IC50 came out at 190 nM. The same measure, in the same setting: the figure for `CC(C)C(CP(=O)(O)C(Cc1ccccc1)NC(=O)C(CCCN)NS(C)(=O)=O)C(=O)N[C@@H](Cc1c[nH]c2ccccc12)C(=O)O` (stereo partly drawn) is 550 nM.

`CC(C)CC(CP(=O)(O)C(CCCCO)NC(=O)OCc1ccccc1)C(=O)N[C@@H](Cc1c[nH]c2ccccc12)C(=O)O` (stereo partly drawn) [Cbz, HO(CH2)4, H, iso-butyl]: the IC50 was determined as 200 nM. Consider `CC(C)C(CP(=O)(O)C(Cc1ccccc1)NC(=O)OCc1ccccc1)C(=O)N[C@@H](Cc1c[nH]c2ccccc12)C(=O)O` (stereo partly drawn) [Cbz, C6 H5CH2, H, iso-propyl], for which the IC50 was 1300 nM. On the same count and under the same terms, then `CC(C)C(CP(=O)(O)C(Cc1ccccc1)NC(=O)C(CCCCN)NS(C)(=O)=O)C(=O)N[C@@H](Cc1c[nH]c2ccccc12)C(=O)O` (stereo partly drawn), with 500 nM; and `CC(C)C(CP(=O)(O)C(Cc1ccccc1)NC(=O)C(CCCCNC(=O)OCc1ccccc1)NC(=O)OCc1ccccc1)C(=O)N[C@@H](Cc1c[nH]c2ccccc12)C(=O)O` (stereo partly drawn), with 1100 nM; and `O=C(NC(Cc1ccc2ccccc2c1)P(=O)(O)CC1(C(=O)N[C@@H](Cc2c[nH]c3ccccc23)C(=O)O)CCCC1)OCc1ccccc1` (stereo partly drawn) [Cbz, 2-naphthylmethyl, R3 + R4 = (CH2)4], with 500 nM.
